Measurements: patent publication US20050277602A1, “Methods employing agonists of P38 map kinase for the treatment of asthma” (priority 2004, published 2005)
“And” between values parts separate entries of the source, which are not always exact repeats. Equal values may be shown once. “Also recorded” adds a separate entry of the source. Read-outs that look alike come from different tables or passages of the source.

Key:
rabbit ASM tissues [1] = assay: Relaxation responses to isoproterenol in isolated rabbit ASM tissues half-maximally contracted with ACh; type: cell-based; details: for effect on relaxation responses to isoproterenol in tissues not exposed to Der p1: control ASM
Experimental: (§1) Following general anesthesia with xylazine (10 mg/kg) and ketamine (50 mg/kg), rabbits were sacrificed with an overdose of pentobarbital (125 mg/kg). As described previously (Grunstein et al. (2001) Am J Physiol Lung Cell Mol Physiol 280:L229-L238), the tracheae were removed via open thoracotomy, the loose connective tissue and epithelium were carefully scraped and removed, and the tracheae were divided into ring segments. Each alternate ring was incubated for 24 hours at room temperature in the presence of either vehicle (saline) alone (control), vehicle containing cysteine (5 mM), or varying concentrations of affinity purified Der p1 allergen (0.1, 0.5, 1.0, 5.0 μg/ml) both in the absence and presence of cysteine, as addition of the latter is required to restore the cysteine protease activity of the purified Der p1. In parallel experiments, 30 min prior to incubation in control or Der p1-containing medium, ASM segments were treated with either the specific cysteine protease inhibitor, E-64 (trans-epoxysuccinyl-L-leucyl-amido (4-guanidino)-butane; 1 μM), the serine protease inhibitor, leupeptin (1 μM), the MEK1/2-specific inhibitors, U0126 (5 μM) or PD98059 (10 μM), or the specific p38 MAP kinase inhibitors, SB202190 (10 μM) or SB203580 (10 μM).
(§2) Following incubation, the ASM segments were placed in organ baths containing modified Krebs-Ringer solution aerated with 5% CO2 in oxygen (pH: 7.35-7.40), and the tissues were attached to force transducers from which isometric tension was continuously monitored on a multichannel recorder, as previously described (Hirst et al. (2002) Am J Respir Crit Care Med 165:1161-71). Cholinergic contractility was then assessed in the ASM segments by cumulative administration of acetylcholine (ACh; 10^−10 to 10^−4 M). Thereafter, the tissues were repeatedly rinsed with fresh buffer, and subsequent relaxation responses to isoproterenol (10^−10-10^−4 M) were generated after the tissues were half-maximally contracted with ACh. The constrictor dose-response curves to ACh were analyzed in terms of each tissue's maximal isometric contractile force (Tmax) to the agonist, and the relaxation responses to isoproterenol were assessed in terms of % maximal relaxation (Rmax) from the initial level of induced cholinergic contraction, and sensitivity to the relaxing agent was determined as the corresponding pD50 value (i.e., geometric mean ED50 value) associated with 50% of Rmax.

ERK1/2 = assay: Immunoblot analysis of phosphorylated ERK1/2 in rabbit ASM tissues; type: cell-based; details: for effect on Der p1-induced expression of phosphorylated ERK1/2: Der p1-exposed ASM pretreated/co-treated with E-64, SB202190 or anisomycin (50 ng/ml)
Experimental: (§3) Protein levels of phosporylated and total ERK1/2 and p38 MAP kinase were assessed by Western blot analysis of whole cell lysates isolated from rabbit ASM tissues following treatment with either vehicle alone or cysteine-activated Der p1 (1 μg/ml), both in the absence and presence of E-64, SB202190, or anisomycin. The tissues were homogenized and proteins extracted in a buffer containing 50 mM Tris-HC 1,150 mM NaCl, 1 mM EDTA (pH 7.4) with 1 mM phenylmethylsulfonyl fluoride, 5 μg/mL aprotinin, and 5 μg/mL leupeptin. Following removal of insoluble debris by centrifugation, gel-loading buffer was added to the supernatants, and extracts were then loaded (using 30 μg total protein/sample) on a 10% SDS-PAGE gel for immunoblotting after transferring to a nitrocellulose membrane. The membranes were blocked with 5% nonfat dry milk and then incubated overnight with monoclonal mouse anti-human phosphotyrosine-threonine (Thr180/Tyr182)-p38 MAP kinase and p38 MAP kinase, and anti-human phosphotyrosine-threonine (Thr202/Tyr204)-p44/42 (ERK1/2) and p44/42 primary antibodies. The kinase levels were detected using enhanced chemiluminescence after a 1-hour incubation with a 1:1,000 dilution of horseradish peroxidase (HRP)-conjugated goat-anti-mouse secondary antibody, followed by exposure to autoradiography film. Protein band intensities were quantified using Alphalmager, and the data normalized relative to those obtained in untreated ASM samples.

rabbit ASM tissues [2] = assay: Constrictor responses to acetylcholine in isolated rabbit ASM tissues (organ bath, isometric tension); type: cell-based; details: for effect on constrictor responses to ACh in tissues not exposed to Der p1: control (vehicle-exposed) ASM; for maximal constrictor response (Tmax) to ACh: mean±SE
Experimental: as §1, §2

p38 MAP kinase = assay: Immunoblot analysis of phosphorylated p38 MAP kinase in rabbit ASM tissues; type: cell-based; details: for expression of phosphorylated p38 MAP kinase relative to control (unstimulated) ASM: tissues exposed for 30 min, anisomycin 50 ng/ml or Der p1 alone
Experimental: as §3

[3] = system: cultured human ASM (HASM) cells; assay: IgE-induced release of IL-6 from cultured human ASM cells (ELISA); type: cell-based
Experimental: Human airway smooth muscle cells were purchased from BioWhittaker, Inc., (Walkersville, […].) The cells were cultured in 100 mm dishes in Ham's F 12 nutrient mixture (Invitrogen, Carlsbad Calif.) supplemented with 10% FBS (Hyclone, Logan, Utah) under 5% CO2 environment. After attaining 90% confluence in cell culture, the cells were used for the studies described in Example 2.
Preparations of IgE immune complexes containing human IgE and mouse monoclonal IgG2B (anti-IgE) (Biodesign International, Saco, Me.) at a 15/5 μg ratio were added to cells 24 hr after serum deprivation. The cells were harvested at the indicated time points for immunoblotting and media were collected for ELISA analysis as described below.
IL 6 accumulation in the ASM cell culture media was detected using an ELISA kit for IL 6 purchased from Research Diagnostics Inc. (Flanders, N.J.). Culture media was diluted 1:50 into a sample dilution buffer supplied in the kit. The experiments were carried out according to the manufacturer's protocol.

OVA-sensitized mice = OVA-sensitized mice treated with U0126; cited from earlier work
HL-60 leukemia cells = details: cited from earlier work
ASM preparations = assay: Intracellular cAMP accumulation in ASM preparations (EIA); type: cell-based, rabbit; details: tissues exposed to Der p1; data not shown
Experimental: Intracellular cAMP levels were assayed in control (untreated) and Der p1-treated ASM preparations under baseline (unstimulated) conditions and at 10 min following administration of isoproterenol (0.1-10 μM). Following stimulation with isoproterenol, the tissues were homogenized and the cAMP levels were measured using the Form a A cyclic AMP “PLUS” EIA kit (Biomol Inc., Plymouth Meeting, Pa.) following manufacturer's protocol.

[4] = Der p1-exposed ASM, E-64 1 μM, leupeptin 1 μM, U0126 5 μM, PD98059 10 μM, SB202190/SB203580 10 μM, anisomycin 50 ng/ml
[5] = Der p1 not pre-activated with cysteine (inactivated), data not shown
[6] = Der p1-exposed tissues, densitometry, 4 experiments

Molecule | effect of pretreatment on Der p1-induced impaired relaxation responsiveness to isoproterenol (rabbit ASM tissues [1]; [4]) | effect on relaxation responses to isoproterenol in tissues not exposed to Der p1 (rabbit ASM tissues [1]) | effect on Der p1-induced expression of phosphorylated ERK1/2 (ERK1/2) | effect of pretreatment on Der p1-induced enhanced constrictor responsiveness to ACh (rabbit ASM tissues [2]; [4]) | effect on constrictor responses to ACh in tissues not exposed to Der p1 (rabbit ASM tissues [2]) | also measured
CC(C)C[C@H](NC(=O)[C@H]1O[C@@H]1C(=O)O)C(=O)NCCCCN=C(N)N (relative stereo) [E-64, trans-epoxysuccinyl-L-leucyl-amido (4-guanidino)-butane] | prevented | no effect | neither the levels of phosphorylated ERK1/2 nor p38 MAP kinase were appreciably altered | largely abrogated | no effect | effect on Der p1-induced expression of phosphorylated p38 MAP kinase (p38 MAP kinase): neither the levels of phosphorylated ERK1/2 nor p38 MAP kinase were appreciably altered
CC(=O)N[C@@H](CC(C)C)C(=O)N[C@@H](CC(C)C)C(=O)N[C@H](C=O)CCCNC(=N)N [leupeptin] | unaffected |  |  | unaffected |  | 
N#CC(=C(/N)Sc1ccccc1N)/C(C#N)=C(\N)Sc1ccccc1N [U0126] |  |  |  |  |  | effect of pretreatment on Der p1-induced impaired relaxation responsiveness to isoproterenol (rabbit ASM tissues [1]): largely ablated; effect of pretreatment on Der p1-induced enhanced constrictor responsiveness to ACh (rabbit ASM tissues [2]): completely abrogated; effect on IgE-induced release of IL-6 ([3]; IgE-exposed HASM cells, concomitant pretreatment with U-0126): completely abrogated; airway hyperresponsiveness, elevated intrapulmonary eosinophil counts and cytokine levels (OVA-sensitized mice): significantly inhibit
COc1cccc(-c2cc(=O)c3ccccc3o2)c1N [PD98059] | qualitatively comparable opposing effects; also recorded: largely prevented | neither of these inhibitors produced a significant change |  | qualitatively comparable opposing effects; also recorded: largely prevented | neither of these inhibitors produced a significant change | 
COc1ccc(C[C@H]2NC[C@H](O)[C@H]2OC(C)=O)cc1 [anisomycin] | largely prevented | no significant effect | largely abrogated | completely abrogated | no effect | stimulated ERK activity (HL-60 leukemia cells; stimulated HL-60 cells): inhibits; basal ERK activity (HL-60 leukemia cells; unstimulated HL-60 cells): no effect; effect on phosphorylated ERK1/2 expression in unstimulated ASM (ERK1/2; anisomycin 50 ng/ml, 30 min, no Der p1): essentially no effect; expression of phosphorylated p38 MAP kinase relative to control (unstimulated) ASM (p38 MAP kinase): increased expression
C[S+]([O-])c1ccc(-c2nc(-c3ccncc3)c(-c3ccc(F)cc3)[nH]2)cc1 (centres unmarked) [SB203580] | qualitatively comparable opposing effects | neither of these inhibitors produced a significant change |  | qualitatively comparable opposing effects | neither of these inhibitors produced a significant change | 
Oc1ccc(-c2nc(-c3ccncc3)c(-c3ccc(F)cc3)[nH]2)cc1 [SB202190] | further significantly impaired |  | distinctly enhanced | further augmented |  | maximal relaxation (Rmax) to isoproterenol (rabbit ASM tissues [1]; Der p1-exposed tissues pretreated with SB202190 (10 μM), mean): 37.6±7.1%; maximal constrictor response (Tmax) to ACh (rabbit ASM tissues [2]; Der p1-exposed tissues pretreated with SB202190 (10 μM)): 136.2±6.2 g/g ASM wt.; IgE-induced release of IL-6, augmented ([3]; IgE-exposed HASM cells pretreated with SB-202190): approximately 9 fold
Der p1: affinity purified house dust mite allergen with intrinsic cysteine protease activity, activated with cysteine (protein, UniProt P08176 99-320, looked up) Peptidase 1: TNACSINGNAPAEIDLRQMRTVTPIRMQGGCGSCWAFSGVAATESAYLAYRNQSLDLAEQELVDCASQHGCHGDTIPRGIEYIQHNGVVQESYYRYVAREQSCRRPNAQRFGISNYCQIYPPNVNKIREALAQTHSAIAVIIGIKDLDAFRHYDGRTIIQRDNGYQPNYHAVNIVGYSNAQGVDYWIVRNSWDTNWGDNGYGYFAANIDLMMIEEYPYVVIL |  |  |  |  |  | sensitivity to isoproterenol (pD50) (rabbit ASM tissues [1]; ASM exposed 24 h to Der p1, mean±SE): 5.99±0.04 -log M; maximal relaxation (Rmax) to isoproterenol (rabbit ASM tissues [1]; ASM exposed 24 h to cysteine-activated Der p1, mean±SE): 37.9±4.9% and 48.8±4.7%; effect on relaxant responsiveness (rabbit ASM tissues [1]; [5]): no effect; maximal enhanced expression of phosphorylated ERK1/2 above basal (pretreatment) level (ERK1/2; [6]): 5.8 fold; maximal constrictor response (Tmax) to ACh (rabbit ASM tissues [2]; ASM exposed 24 h to cysteine-activated Der p1 (1 μg/ml)): 133.7±8.4 g/g ASM wt. and 123.8±6.5 g/g ASM wt. and 119.0±8.2 g/g ASM wt.; effect on constrictor responsiveness (rabbit ASM tissues [2]; [5]): no effect; isoproterenol-induced cAMP accumulation relative to control (untreated) ASM (ASM preparations): reduced; maximal enhanced expression of phosphorylated p38 MAP kinase above basal (pretreatment) level (p38 MAP kinase; [6]): 3.2 fold; expression of phosphorylated p38 MAP kinase relative to control (unstimulated) ASM (p38 MAP kinase): increased expression
